Consider seven compounds from article PMC6005341, “Identification of “sarsasapogenin-aglyconed” timosaponins as novel Aβ-lowering modulators of amyloid precursor protein processing” (Chemical Science, 2016).

One data set concerns HEK293 expressing APPswe. Details: method as in J Neurosci Res (2012) 92: 108. The conditions noted are these: ref J Neurosci Res (2012) 92: 108, read-out: In vitro IC50 Aβ inhibition; cited from earlier work.
The next data set deals with β-secretase. Details: method as in PMID 23082924. The settings on record: rat retina; cited from earlier work.
The test system of the next data set is N2A expressing APPswe. Details: method as in J. Neurosci., (2005) 25:8807. The conditions noted are these: ref J. Neurosci., (2005) 25:8807, read-out: In vitro IC50 Aβ inhibition; cited from earlier work.
Data set [1] concerns Aβ42 production in N2A-APPswe cells. Put plainly: Aβ42 in conditioned medium of N2A-APPswe cells by ELISA, 18 h treatment. In kind it is cell-based. The conditions noted are these: N2a-APPswe, read-out: IC50 in lowering Aβ42 production, N2A-APPswe cells; mean ± standard deviation; n ≥ 3. The text has this:
Sigma-Aldrich Chemical Co. unless otherwise specified. SSG (1) was purchased from Wako Pure Chemical Industries, Ltd. Diosgenin (6), Dioscin (9), Polyphyllin D (10), Timosaponin BI (22) and Timosaponin BII (23) were purchased from Chengdu Must Bio-Technology Co.
Ltd. Yamogenin (7) was bought from Ambinter c/o Greenpharma while Smilagenin (24) was bought from Steraloids Inc. Substances dissolved in DMSO as stock solutions. Cell culture medium constituents were purchased from Life Technologies, Inc.
Cell culture: Neuro-2A cells expressing Swedish mutants of APP (N2A-APPswe provided by Prof. Yifan Han, The Hong Kong Polytechnic University)1 was cultured in minimal essential medium with 2 mM glutamine, 2 mM pyruvate and 10% fetal bovine serum. […]
Aβ ELISA: Aβ concentrations in conditioned medium were assayed using ELISA kits for […]

The next data set has as its system Aβ42 levels in the brain. Put plainly: In vivo brain Aβ42 level by ELISA after oral dosing. The settings on record: 100 mg kg^–1 oral gavage, three times in 2 days, 3–5 month old C57BL/6 mice. How it is done: was performed at least three times. The lowest binding scores were computed and the conformations of the corresponding binding pose presented.
Quantum mechanics/Molecular mechanics. The binding between transmembrane and substrate was further optimized using the QM/MM approach and NWChem software. The quantum part (QM) included TAIII (total 116 atoms), while the rest of the system was modelled as the molecular mechanics (MM) level. The QM region was treated at the DFT level using the B3LYP method. The 6-31G* Pople basis set was employed for all the atoms.
The transmembrane was described with the AMBER parm99 force field. The binding structure was solvated in a cubic box with 6872 classical SPC/E water molecules. Three negative counter ions (Cl-) were added to neutralize the charges in the system. The structure was optimized by performing the BFGS algorithm for the QM part and the steepest descent algorithm for the MM part. The optimization of these two regions (QM and MM) was alternated until self-consistency was reached.
Animal experiments: Male C57BL/6N mice were housed in environmentally controlled room (temperature: 25 ± 2 °C, humidity: 50 ± 5%, 12-h light-dark cycle) in Laboratory Animal Unit, The University of Hong Kong and were freely access to food and water. TAIII, TAI SSG and compound 34 were dissolved in 5% Tween 80 and given to the mice by oral gavage at three repeated doses of 100 mg/kg in 48 hours. Mice were administrated with 5% Tween 80 (control group), TAIII, TAI SSG and 34. The experimental procedures were performed with the approval of Committee of Use of Live Animal for Teaching and Research of The University of Hong Kong. Blood (about 600-800 µL) was collected by cardiac puncture and added with 1/10 volume of Na2EDTA (20 mg/mL) to prevent coagulation. After centrifugation at 3000 g for 15 min at 4 °C, plasma was transferred to a centrifuge tube. […] Both plasma and brain samples were stored at -80 °C until they were analyzed. The Aβ42 levels were determined by Wako High Sensitive Aβx-42 ELISA kit. […]
For orientation: ELISA stands for enzyme-linked immunosorbent assay.

A short description of data set [2]: Plasma and brain concentrations by LC-MS/MS. In kind it is in vivo, mice. The procedure:
Animal experiments: Male C57BL/6N mice were housed in environmentally controlled room (temperature: 25 ± 2 °C, humidity: 50 ± 5%, 12-h light-dark cycle) in Laboratory Animal Unit, The University of Hong Kong and were freely access to food and water. TAIII, TAI SSG and compound 34 were dissolved in 5% Tween 80 and given to the mice by oral gavage at three repeated doses of 100 mg/kg in 48 hours. Mice were administrated with 5% Tween 80 (control group), TAIII, TAI SSG and 34. The experimental procedures were performed with the approval of Committee of Use of Live Animal for Teaching and Research of The University of Hong Kong. Blood (about 600-800 µL) was collected by cardiac puncture and added with 1/10 volume of Na2EDTA (20 mg/mL) to prevent coagulation. After centrifugation at 3000 g for 15 min at 4 °C, plasma was transferred to a centrifuge tube. The brain was dissected into two hemispheres on ice, weighed and frozen in liquid nitrogen immediately. The left brain was homogenized with 1 mL of buffer containing 5 M guanidine HCl, 50 mM Tris HCl, pH 8.0, with protease inhibitor cocktail and AEBSF using a Polytron and the homogenates were allowed to stand at room temperature for 3h. Both plasma and brain samples were stored at -80 °C until they were analyzed. […]
B. Determination of timosaponin levels in mice plasma and brain by ultra-high pressure liquid chromatography tandem mass spectrometry
The UPLC-ESI-QTOF consists of a Waters Q-TOF PremierTM mass spectrometer (Micromass MS Technologies, Manchester, UK) operated in positive ion mode and a Waters ACQUITY TM UPLC system. The mass spectrometer conditions were optimized as follows: source […]
temperature, 120 °C; desolvation temperature, 500 °C; nebulization gas flow rate, 1000 L/h; cone gas flow rate, 20 L/h; capillary voltage, 2.5 kV; sampling cone voltage, 28V. The data were collected into two separate data channels with the instrument spending 0.5 s on data acquisition for each channel and a 0.1 s inter-channel delay. The mass spectrometer was calibrated by using the solution of sodium formate (0.5 mM) and the TOF scan range was from 100 to 1000 Da. In order to improve mass measurement accuracy a lock mass compound (50 pg µL−1 solution of leucine encephalin; m/z 556.2771) was continuously infused at a 0.5 mL min-1 using the built-in syringe pump of the instrument.
Sample was loaded into a Waters ACQUITY TM BEH C18 column (100 × 2.1 mm i.d., 1.7 µM) connected to a Waters ACQUITY TM BEH C18 guard column (5 × 2.1 mm i.d., 1.7 µM). The gradient elution system consisted of 0.1% formic acid in water (A) and 0.1% formic acid in acetonitrile (B). Separation was achieved by using: 30%-55% B from 0 to 3 min; 55-100% B from 3 to 6 min; 100% B from 6 to 12 min and returned to initial conditions and equilibrated for 3 minutes. The flow rate was 0.3 mL/min and the injection volume was 5 µL.
Standard preparation and sample preparation
Stock solution (10 µM ) of each analyte was prepared by dissolving in methanol. They were subject to serial dilution to give calibration curves of SSG 1 (plasma: y = 8.7485× - 0.0676; […]
each concentration of each analyte was transferred to a centrifuge tube and evaporated to dryness by a concentrator. Dioscin (20 µL , 10 µM) was added as an internal standard followed by methanol (130 µL) and control plasma (50 µL). The mixture was vortexed for 5 s and centrifuged (15000 × g) for 15 min. The supernatant was collected and evaporated to dryness by a concentrator. Methanol (100 µL) was added and then vortexed again for 10 s and centrifuged (15000 × g) for 20 min. The supernatant (5 µL) was subject to LC-MS/MS analysis. Analyte-treated plasma, control brain and analyte-treated brain were prepared in a […]
The acquisition and processing of data were performed by Masslynx (version 4.1) software.
Mass window of ±10 mDa and mass resolution of 9000 were set for both molecular ions and product ions. MS full scan was applied to acquire high abundant molecular ions [M+H]+ with […]

In data set [3] the test system is SH-SY5Y Cells expressing APP. Details: method as in J Neurosci. (2005) 25: 3032; J. Biol. Chem (2011) 286:14028. The conditions noted are these: ref J Neurosci. (2005) 25: 3032, J. Biol. Chem (2011) 286:14028, read-out: In vitro IC50 Aβ inhibition; cited from earlier work.
The test system of data set [4] is brain Aβ / amyloid in APPswe transgene. The settings on record: cited from earlier work.
For data set [5], the system named is Mouse primary cortical neurons. Details: method as in earlier work. The settings on record: ref J. Biol. Chem. (2005) 280: 5829, J. Biol. Chem. (2010) 285:28472, read-out: In vitro IC50 Aβ inhibition; cited from earlier work.
For data set [6], the system named is Brain Aβ42 in APP/PS1 transgene. Details: method as in J. Biol. Chem. (2010) 285:9110. The settings on record: diet with 0.35% for 15 weeks, ref J. Biol. Chem. (2010) 285:9110; cited from earlier work.
A further data set deals with HEK293 expressing APP. Details: method as in J. Biol. Chem. (2010) 285:9110. The settings on record: ref J. Biol. Chem. (2010) 285:9110, read-out: In vitro IC50 Aβ inhibition; cited from earlier work.
The mark [7] stands for this setting: any metabolite, mice n = 6, three oral doses 100 mg/kg in two days.

Bounds are passed on as bounds.

As to `C/C=C1\[C@H]2C=C(C)C[C@]1(N)c1ccc(=O)[nH]c1C2` [Huperzine A], the IC50 (in general, the concentration at which inhibition is half-maximal) with HEK293 expressing APPswe was ~10 µM.

With `C[C@@H](CC[C@@]1(O)O[C@H]2C[C@H]3[C@@H]4CC[C@@H]5C[C@@H](O[C@@H]6O[C@H](CO)[C@H](O)[C@H](O)[C@H]6O[C@@H]6O[C@H](CO)[C@@H](O)[C@H](O)[C@H]6O)CC[C@]5(C)[C@H]4CC[C@]3(C)[C@H]2[C@@H]1C)CO[C@@H]1O[C@H](CO)[C@@H](O)[C@H](O)[C@H]1O` [Timosaponin B II (23), timosaponin B II], the “up-regulation of β-secretase induced by ferric chloride” value in the data set with β-secretase is on record as “inhibit”.

As for “Epigallocatechin-3-gallate [Epigallocatechin-3-gallate (EGCG)]”, in the data set with N2A expressing APPswe, the 50% inhibitory concentration (IC50) is ~20 µM.

For `CC1CCC2(OC1)OC1CC3C4CCC5CC(OCC(=O)NCC6OC(O)C(O)C(O)C6O)CCC5(C)C4CCC3(C)C1C2C` (stereo not drawn) [α-, β-OH SSG (34), α-, β-OH SSG], the 50% inhibitory concentration (IC50) in data set [1] was 7.3 ± 4 µM. For the same compound, the “reduction of Aβ42 levels in the brain” value in the data set on Aβ42 levels in the brain is reported as 87% ± 15%. In [2] (setting [7]), the “Brain Metabolite” value is listed as “Not detected” and the “Plasma Metabolite” value is recorded as “Not detected”. Moreover, in data set [2] (mice n = 6, three oral doses 100 mg/kg in two days), the “Brain Precursor” value came to 0.025 ± 0.041 µM. Moreover, the “Plasma Precursor” value in data set [2] (mice n = 6, three repeated oral doses 100 mg/kg in two days) amounted to 0.051 ± 0.072 µM.

For the compound `CC/C=C\C/C=C\C/C=C\C/C=C\C/C=C\C/C=C\CCC(=O)O` [docosahexaenoic acid], the IC50 in data set [3] was ~100 µM. For the same compound, the “Total Aβ reduced by” value in [4] (diet with 0.5% level for 5 months, ref J Neurosci. (2005) 25: 3032, J. Biol. Chem (2011) 286:14028) was 70%.

Consider `COc1cc(/C=C/C(=O)CC(=O)/C=C/c2ccc(O)c(OC)c2)ccc1O` [Curcumin], for which, in [4] (chow with 500 ppm for 22 weeks, ref J. Biol. Chem. (2005) 280: 5829, J. Biol. Chem. (2010) 285:28472), the Amyloid deposition result is “reduced”. Besides, the half-inhibitory concentration (IC50) in data set [5] was > 20 µM.

Regarding `Oc1ccc(/C=C/c2cc(O)cc(O)c2)cc1` [Resveratrol], the “Brain Aβ42 reduced by” value in data set [6] is 20%. Also, the IC50 in the data set with HEK293 expressing APP is ~20 µM.
